The source of these data is patent US20170088601A1, “CD133 EPITOPES” (CEDARS-SINAI MEDICAL CENTER, priority 2008, published 2017).

For assay [1], the system named is HLA-A2 and CD133 positive cancer stem cells (CSC4). Nature of the assay: IFN-γ ELISA of peptide-stimulated CTLs against cancer stem cells. Type of assay: cell-based, human. Conditions: ELISA of supernatant. How it is done:
(§1) The binding of the peptide-primed CTLs to HLA-A2 positive human cells was also tested. To generate dendritic cells, the plastic adherent cells from PBMCs were cultured in AIM-V medium supplemented with recombinant human GM-CSF and recombinant human IL-4 at 37° C. in a humidified incubator with 5% CO2. Six days later, the immature dendritic cells were stimulated with recombinant human TNF-alpha for maturation. Mature dendritic cells were then harvested on day 8, resuspended in PBS at 1×10^6/mL with the indicated peptides (2 μg/mL), and incubated for 2 hours at 37° C. Autologous PBMCs (2×10^6 per well) were cocultured with 2×10^5 per well peptide-pulsed dendritic cells in 2 mL/well of AIM-V medium supplemented with 5% human AB serum and 10 units/mL rhIL-7 (Cell Sciences) in each well of 24-well tissue culture plates.
(§2) On the next day and then every 3 days thereafter, 300 IU/ml of IL-2 was added to the medium. On day 7, lymphocytes were restimulated with autologous dendritic cells in AIM-V medium supplemented with 5% human AB serum, rhIL-2, and rhIL-7 (10 units/mL each). To generate peptide-specific CTLs, CD8 (+) T cells were isolated from healthy donors, then stimulated by autologous DC pulsed with peptide. After three cycle stimulations, these CTLs could efficiently recognize both HLA-A2 and CD133 positive cancer stem cells, as measured by amount of IFN-γ (pg/ml) in supernatant detected by ELISA (Table 2). However, they could not recognize the CD133 positive normal neural stem cells due to their absence of MHC expression.
A general note: In an ELISA, binding on a coated surface is turned into a signal by an enzyme label.

The test system of assay [2] is T2 cells. Nature of the assay: IFN-γ ELISA of peptide-stimulated CTLs against peptide-pulsed T2 cells. Type of assay: cell-based, human. The conditions noted are these: ELISA of supernatant. The protocol:
as §1, §2

Assay [3] deals with T1, HLA-A2 molecules on T2 cells (Homo sapiens, UniProt P04439, D140Y/D185E/D98H/E176V/E277Q/G131W/G231S/I119V/I121R/I166T/I218V/L300P/L318F/N151K/N90K/P208A/P217A/Q86G/Q94H/R138H/R169H/T345S).
T1 construct: mean fluorescence of peptide preincubated T2 cells; endogenous in cells; host or cells: T2 cells
Nature of the assay: Binding of mouse CD133 peptide to HLA-A2 on T2 cells (BB7.2 mAb, flow cytometry). The conditions noted are these: 0 μM, 10 μM or 100 μM peptide overnight. The protocol:
The mouse counterpart of SEQ ID NO:1, […] (SEQ ID NO:11) also bound to HLA-A2, despite having only two amino acid residues in common. T2 cells were incubated overnight with 0 μM, 10 μM, or 100 μM of SEQ ID NO:11. The cells were then incubated with Brefeldin A (Sigma, St. Louis, Mo.) at 10 μg/ml for 1 hour, washed, incubated at 37° C. in the presence of Brefeldin A ([…]), and then stained with BB7.2 mAb. Fluorescence intensity was measured by flow cytometry.
Background: A flow cytometer gives signals particle by particle.

For assay [4], the target named is T2, HLA-A2 molecules (HLA-A*0201) on T2 cells (Homo sapiens, UniProt P04439, D140Y/D185E/D98H/E176V/E277Q/G131W/G231S/I119V/I121R/I166T/I218V/L300P/L318F/N151K/N90K/P208A/P217A/Q86G/Q94H/R138H/R169H/T345S).
T2 construct: mean fluorescence of peptide preincubated T2 cells; endogenous in cells; host or cells: T2 cells
Nature of the assay: Binding of peptides to HLA-A2 and stability of HLA-A*0201/peptide complexes on T2 cells (BB7.2 mAb staining). The protocol: The cells were then incubated with Brefeldin A (Sigma, St. Louis, Mo.) at 10 μg/ml for 1 hour, washed, incubated at 37° C. for 0, 3, or 6 hours in the presence of Brefeldin A (0.5 μg/ml), and then stained with BB7.2 mAb. […] DC50 was defined as the time required for the loss of 50% of the HLA-A*0201/peptide complexes stabilized at t=0.

In assay [5] the test system is CD8 (+) T cells from healthy donors. As to the kind of experiment: HLA-A*0201/peptide tetramer staining of peptide-induced CTLs, flow cytometry. It is filed as cell-based, human. How it is done: To generate peptide-specific CTLs, CD8 (+) T cells were isolated from healthy donors, then stimulated by autologous DC pulsed with peptide. Specific T cells were generated after PBMCs were stimulated by autologous DC pulsed with irradiated, apoptotic cancer stem cells (CSCs). Phycoerythrin-conjugated HLA-A*0201/peptide tetramers were synthesized. The cells were stained with tetramers (5 ng/ml) in PBS+0.5% human AB serum for 1 hour at room temperature, washed once in the same buffer, stained with anti-human CD8-FITC (BD Biosciences) mAbs for 30 minutes at 4° C. followed by flow cytometry analysis.

A value given as a limit tells only on which side of the number the result lay.

With FLLPALIFAV (Homo sapien) [CD133-804], the “IFN-γ induced by PBMC stimulus for CTL generation, target CSC4” value (“IFN-γ induced … target CSC4” for short) in assay [1] came out at 450 pg/mL. Further, in assay [2], the “IFN-γ induced by PBMC stimulus for CTL generation, target T2 + 117” value (from here on “IFN-γ induced … target T2 + 117”) was 275 pg/mL; the “IFN-γ induced by PBMC stimulus for CTL generation, target T2 + 301” value (from here on “IFN-γ induced … target T2 + 301”) was 148 pg/mL; the “IFN-γ induced by PBMC stimulus for CTL generation, target T2 + 405” value (from here on “IFN-γ induced … target T2 + 405”) worked out at 294 pg/mL; the “IFN-γ induced by PBMC stimulus for CTL generation, target T2 + 708” value (from here on “IFN-γ induced … target T2 + 708”) is 247 pg/mL. Further, in assay [2], the “IFN-γ induced by PBMC stimulus for CTL generation, target T2 + 804” value (from here on “IFN-γ induced … target T2 + 804”) was 409 pg/mL and the “IFN-γ induced by PBMC stimulus for CTL generation, target T2 only” value (from here on “IFN-γ induced … target T2 only”) turned out to be 211 pg/mL.

For the sequence MLLQVSHYL (Mus Musculus) [SEQ ID NO:11], the “Cell fluorescence (binding to HLA-A2)” value in assay [3] is recorded as “increased in a dose-dependent manner”.

LLFIILMPLV (Homo sapien) [CD133-117]: in assay [1], the “IFN-γ induced … target CSC4” value amounted to 262 pg/mL. Besides, in assay [2], the “IFN-γ induced … target T2 + 117” value was 322 pg/mL; the “IFN-γ induced … target T2 + 301” value was 247 pg/mL; the “IFN-γ induced … target T2 + 405” value was found to be 262 pg/mL; the “IFN-γ induced … target T2 + 708” value is 192 pg/mL. For the same sequence, in assay [2], the “IFN-γ induced … target T2 + 804” value was 336 pg/mL and the “IFN-γ induced … target T2 only” value amounted to 275 pg/mL.

For ILSAFSVYV (Homo sapien) [CD133-405], the “DC50 (time required for the loss of 50% of the HLA-A*0201/peptide complexes stabilized at t=0)” value in assay [4] (100 μM peptide) is on record as more than 6 h. The “Binding to HLA-A2 / HLA-A*0201 molecules (in words)” value in assay [4] (listed as SEQ ID NO:1) is “bound strongly”. Also, the “Binding to HLA-A2 / HLA-A*0201 molecules (in words)” value in assay [4] (listed as peptide 405) is recorded as “binds relatively strongly”. In assay [1], the “IFN-γ induced … target CSC4” value was determined as 2311 pg/mL. Further, the Tetramer positive cell in assay [5] (CD8+ T cells stimulated by autologous DC pulsed with peptide, PE HLA-A*0201/peptide tetramer and anti-CD8-FITC) came out at 3.72%. Moreover, the “Immunogenicity (in words)” value in assay [5] (overall conclusion of Example 1) was “highly immunogenic”. For the same sequence, in assay [2], the “IFN-γ induced … target T2 + 117” value is 334 pg/mL; the “IFN-γ induced … target T2 + 301” value was 311 pg/mL; the “IFN-γ induced … target T2 + 405” value is 2450 pg/mL; the “IFN-γ induced … target T2 + 708” value amounted to 394 pg/mL. Also, in assay [2], the “IFN-γ induced … target T2 + 804” value was 390 pg/mL and the “IFN-γ induced … target T2 only” value was found to be 289 pg/mL.

As to GLLERVTRI (Homo sapien) [CD133-708], the “IFN-γ induced … target CSC4” value in assay [1] was 403 pg/mL. Also, in assay [2], the “IFN-γ induced … target T2 + 117” value is 281 pg/mL; the “IFN-γ induced … target T2 + 301” value amounted to 234 pg/mL; the “IFN-γ induced … target T2 + 405” value worked out at 326 pg/mL; the “IFN-γ induced … target T2 + 708” value is 286 pg/mL. Besides, in assay [2], the “IFN-γ induced … target T2 + 804” value was determined as 258 pg/mL and the “IFN-γ induced … target T2 only” value was found to be 206 pg/mL.

As for SLNDPLCLV (Homo sapien) [CD133-301], the “IFN-γ induced … target CSC4” value in assay [1] worked out at 390 pg/mL. Besides, in assay [2], the “IFN-γ induced … target T2 + 117” value amounted to 174 pg/mL; the “IFN-γ induced … target T2 + 301” value is 165 pg/mL; the “IFN-γ induced … target T2 + 405” value turned out to be 185 pg/mL; the “IFN-γ induced … target T2 + 708” value was 214 pg/mL. In assay [2], the “IFN-γ induced … target T2 + 804” value worked out at 252 pg/mL and the “IFN-γ induced … target T2 only” value was found to be 179 pg/mL.
